Where two headings read alike, the source gives them in different places.
How the values were obtained:
human GPR119 (hGPR119) = target: T1, human GPR119 (hGPR119) (Homo sapiens, UniProt Q8TDV5); test: cAMP accumulation assay (cAMP Gs dynamic HTRF kit); assay type: cell-based; settings: CHO-K1 cells stably expressing hGPR119, 4-parameter fit; for Emax: 1 h, % activity normalized to Max/Min controls; for EC50: cAMP accumulation
T1 construct: expressed in transfected cells
T1 sequence (Q8TDV5 1-335): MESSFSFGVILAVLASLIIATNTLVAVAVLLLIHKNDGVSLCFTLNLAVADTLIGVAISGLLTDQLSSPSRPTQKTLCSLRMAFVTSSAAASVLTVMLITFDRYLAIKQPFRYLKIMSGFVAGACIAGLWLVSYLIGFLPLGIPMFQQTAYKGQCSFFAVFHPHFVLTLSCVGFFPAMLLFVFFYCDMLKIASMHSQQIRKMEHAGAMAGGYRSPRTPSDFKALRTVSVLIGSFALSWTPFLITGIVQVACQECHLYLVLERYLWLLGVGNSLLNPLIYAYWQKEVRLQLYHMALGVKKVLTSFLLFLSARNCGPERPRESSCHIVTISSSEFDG
Summary of the method: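 CHO-K1 cells stably expressing hGPR119, used as assay-ready frozen stocks at ~10,000 cells/well, exposed to compound dose-response in stimulation buffer with Tween 80 for 60 min at 37° C. cAMP read by HTRF (665/620 nm ratio), normalised to Max/Min controls; EC50 and Max activity from 4-parameter fit.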

[1] = In vivo plasma levels in mice after oral gavage; set-up: species or system C57BL/6J mice; settings: mouse, 30 mpk oral gavage; for Exposure unbound (plasma): total exposure x free fraction from plasma protein binding
Description: Male C57BL/6J mice 10-12 weeks old were dosed with test article or vehicle [0.25% (w/v) methylcellulose, 5% (v/v) Polysorbate 80, and 0.02% (w/v) sodium lauryl sulfate in Hanks' Balanced Salt solution (all final concentrations)] by oral gavage at a volume of 10 mL/kg. Animals were euthanized with carbon dioxide 7-8 h post dose. Blood was collected for measurement of plasma concentrations of test article. Unbound exposure was calculated by multiplying the measured total exposure by the free fraction as assessed from plasma protein binding.
Plasma protein binding to isotonic phosphate buffer (PBS) containing 10% C57 BL/6 mouse plasma was determined using equilibrium dialysis of plasma spiked with test article (2 μM) against a dialysis buffer (100 mM sodium phosphate and 150 mM NaCl). At the end of the dialysis (4 hr), aliquots of the plasma and buffer were processed by protein precipitation for LC-MS/MS analysis to quantitate the test article.

[2] = in rats; Bioorganic & Medicinal Chemistry Letters 27(5), 2017, 1124-1128 (Compound 17 in the reference); cited from earlier work
[3] = In vivo plasma levels in mice after oral gavage; set-up: species or system C57BL/6J mice; settings: mouse, 30 mpk oral gavage, 2 h post-dose; for concentration at 2 h: male, C57BL/6J, plasma, 30 mg/kg, read-out: Exposure Total (plasma)
[4] = Oral bioavailability in mice; settings: mouse, in vivo; C57BL/6 mice; IV 1 mg/kg, PO 30 mg/kg
Description: Compounds were dosed IV at 1 mg/kg as a formulation of 0.5 mg/mL in 5% DMSO+30% PEG400+65% water and PO at 30 mg/kg as a formulation of 6 mg/mL in 0.25% methylcellulose+5% Tween 80+0.02% SDS in water (Compound 42) or 0.5% methylcellulose+0.5% Tween 80 in water (Compound 83).

[5] = male, C57BL/6J, plasma, 30 mg/kg, 7 h post-dose, read-out: Exposure Total (plasma)

| Emax (human GPR119 (hGPR119)) [%] | EC50 (human GPR119 (hGPR119)) [nM] | concentration at 7 h [1, 5] [nM] | Exposure unbound (plasma) ([1]; 7 h post-dose) [nM] | Structure (SMILES) | other results |
| --- | --- | --- | --- | --- | --- |
| 100 to 130 | 100 to 1000 | 551 | 1.1 | O=C(NC[C@H](O)[C@@H](O)[C@H](O)[C@H](O)CO)C1CN(C(=O)Cc2ccc(OCCCC3CCN(c4ncc(Cl)cn4)CC3)cc2F)C1 (racemic) [Example 37, 1-[2-[4-[3-[1-(5-chloropyrimidin-2-yl)-4-piperidyl]propoxy]-2-fluoro-phenyl]acetyl]-N-[rac-(2S,3R,4R,5R)-2,3,4,5,6-pentahydroxyhexyl]azetidine-3-carboxamide] | – |
| ≥ 130 | 100 to 1000 | 76 | 0.2 | O=C(CC1CN(C(=O)Cc2ccc(OCCCC3CCN(c4ncc(Cl)cn4)CC3)cc2F)C1)NC[C@H](O)[C@@H](O)[C@H](O)[C@H](O)CO (racemic) [Example 38, 2-[1-[2-[4-[3-[1-(5-chloropyrimidin-2-yl)-4-piperidyl]propoxy]-2-fluoro-phenyl]acetyl]azetidin-3-yl]-N-[rac-(2S,3R,4R,5R)-2,3,4,5,6-pentahydroxyhexyl]acetamide] | – |
| 100 to 130 | 100 to 1000 | – | – | O=C(Cc1ccc(OCCCC2CCN(c3ncc(Cl)cn3)CC2)cc1F)N1CC(CNC[C@H](O)[C@@H](O)[C@H](O)[C@H](O)CO)C1 [Example 42, 2-[4-[3-[1-(5-chloropyrimidin-2-yl)-4-piperidyl]propoxy]-2-fluoro-phenyl]-1-[3-[[[(2S,3R,4R,5R)-2,3,4,5,6-pentahydroxyhexyl]amino]methyl]azetidin-1-yl]ethanone] | concentration at 8 h ([1]; male, C57BL/6J, plasma, 30 mg/kg, 8 h post-dose, read-out: Exposure Total (plasma)): 369 nM; Exposure unbound (plasma) ([1]; 8 h post-dose): 1.1 nM; bioavailability [4]: 2.4%; concentration at 2 h [3]: 806 nM; Exposure unbound (plasma) ([3]; total exposure x free fraction from plasma protein binding): 2.4 nM |
| 100 to 130 | 100 to 1000 | – | – | COCc1cnc(N2CCC(CCCOc3ccc(CC(=O)N4CC(CNC[C@H](O)[C@@H](O)[C@H](O)[C@H](O)CO)C4)c(F)c3)CC2)nc1 [Example 83, 2-[2-fluoro-4-[3-[1-[5-(methoxymethyl)pyrimidin-2-yl]-4-piperidyl]propoxy]phenyl]-1-[3-[[[(2S,3R,4R,5R)-2,3,4,5,6-pentahydroxyhexyl]amino]methyl]azetidin-1-yl]ethanone] | bioavailability [4]: 1.4% |
| 100 to 130 | 100 to 1000 | 67 | 0.1 | O=C(Cc1ccc(OCC[C@@H]2C[C@@H]2C2CCN(c3ncc(Cl)cn3)CC2)cc1F)N1CC(CNC[C@H](O)[C@@H](O)[C@H](O)[C@H](O)CO)C1 [Example 86, 2-[4-[2-[(1S,2R)-2-[1-(5-chloropyrimidin-2-yl)-4-piperidyl]cyclopropyl]ethoxy]-2-fluoro-phenyl]-1-[3-[[[(2S,3R,4R,5R)-2,3,4,5,6-pentahydroxyhexyl]amino]methyl]azetidin-1-yl]ethanone] | – |
| 100 to 130 | ≤ 100 | – | – | O=C(Cc1ccc(OCCCC2CCN(c3ncc(Cl)cn3)CC2)cc1F)N1CC(O)(CNC[C@H](O)[C@H](O)[C@H](O)CO)C1 [Example 185, 2-[4-[3-[1-(5-chloropyrimidin-2-yl)-4-piperidyl]propoxy]-2-fluoro-phenyl]-1-[3-hydroxy-3-[[[(2S,3S,4R)-2,3,4,5-tetrahydroxypentyl]amino]methyl]azetidin-1-yl]ethanone] | – |
| ≥ 130 | ≤ 100 | – | – | O=C(Cc1ccc(OCCCC2CCN(c3ncc(Cl)cn3)CC2)cc1F)N1CCC(O)(CNC[C@H](O)[C@H](O)[C@H](O)CO)C1 (stereo partly drawn) [Example 186, 2-[4-[3-[1-(5-chloropyrimidin-2-yl)-4-piperidyl]propoxy]-2-fluoro-phenyl]-1-[3-hydroxy-3-[[[(2S,3S,4R)-2,3,4,5-tetrahydroxypentyl]amino]methyl]pyrrolidin-1-yl]ethanone] | – |
| 100 to 130 | ≤ 100 | – | – | O=C(Cc1ccc(OCCCC2CCN(c3ncc(Cl)cn3)CC2)cc1F)N1CCC(O)(CNC[C@H](O)[C@H](O)[C@H](O)CO)CC1 [Example 187, 2-[4-[3-[1-(5-chloropyrimidin-2-yl)-4-piperidyl]propoxy]-2-fluoro-phenyl]-1-[4-hydroxy-4-[[[(2S,3S,4R)-2,3,4,5-tetrahydroxypentyl]amino]methyl]-1-piperidyl]ethanone] | – |

The remaining lines, values behind:

| Structure (SMILES) | Emax (human GPR119 (hGPR119)) [%] | EC50 (human GPR119 (hGPR119)) [nM] | concentration at 7 h [1, 5] [nM] | Exposure unbound (plasma) ([1]; 7 h post-dose) [nM] | other results |
| --- | --- | --- | --- | --- | --- |
| COCc1cnc(N2CCC([C@H]3C[C@H]3CCOc3cc(F)c(CC(=O)N4CCC4)c(F)c3)CC2)nc1 [1-(azetidin-1-yl)-2-(2,6-difluoro-4-(2-((1S,2R)-2-(1-(5-(methoxymethyl)pyrimidin-2-yl)piperidin-4-yl)cyclopropyl)ethoxy)phenyl)ethan-1-one] | – | – | – | – | bioavailability [2]: 80% |
| COc1c(Nc2ccc(S(C)(=O)=O)nc2C)ncnc1OC1CCN(C(=O)OC(C)C)CC1 [APD597, isopropyl 4-((5-methoxy-6-((2-methyl-6-(methylsulfonyl)pyridin-3-yl)amino)pyrimidin-4-yl)oxy)piperidine-1-carboxylate, reference compound] | – | – | – | – | concentration at 2 h [3]: 16200 nM |
| O=C(NC(CO)(CO)CO)C1CN(C(=O)Cc2ccc(OCCCC3CCN(c4ncc(Cl)cn4)CC3)cc2F)C1 [Example 29, 1-[2-[4-[3-[1-(5-chloropyrimidin-2-yl)-4-piperidyl]propoxy]-2-fluoro-phenyl]acetyl]-N-[2-hydroxy-1,1-bis(hydroxymethyl)ethyl]azetidine-3-carboxamide] | ≥ 130 | ≤ 100 | 354 | 0.7 | – |
| O=C(Cc1ccc(OCCCC2CCN(c3ncc(Cl)cn3)CC2)cc1F)N1CC(CNC(CO)(CO)CO)C1 [Example 44, 2-[4-[3-[1-(5-chloropyrimidin-2-yl)-4-piperidyl]propoxy]-2-fluoro-phenyl]-1-[3-[[[2-hydroxy-1,1-bis(hydroxymethyl)ethyl]amino]methyl]azetidin-1-yl]ethanone] | ≥ 130 | ≤ 100 | 668 | 0.7 | – |
| O=C(Cc1c(F)cc(OCCCC2CCN(c3ncc(Cl)cn3)CC2)cc1F)N1CCC(O)(CNCC(CO)(CO)CO)C1 (stereo not drawn) [Example 188, 2-[4-[3-[1-(5-chloropyrimidin-2-yl)-4-piperidyl]propoxy]-2,6-difluoro-phenyl]-1-[3-hydroxy-3-[[[3-hydroxy-2,2-bis(hydroxymethyl)propyl]amino]methyl]pyrrolidin-1-yl]ethanone] | 100 to 130 | ≤ 100 | – | – | – |
| CCOc1cnc(N2CCC(CCCOc3cc(F)c(CC(=O)N4CCC(O)(CNCC(CO)(CO)CO)C4)c(F)c3)CC2)nc1 (stereo not drawn) [Example 189, 2-[4-[3-[1-(5-ethoxypyrimidin-2-yl)-4-piperidyl]propoxy]-2,6-difluoro-phenyl]-1-[3-hydroxy-3-[[[3-hydroxy-2,2-bis(hydroxymethyl)propyl]amino]methyl]pyrrolidin-1-yl]ethanone] | 100 to 130 | ≤ 100 | – | – | – |
| COCc1cnc(N2CCC(CCCOc3cc(F)c(CC(=O)N4CCC(O)(CNCC(CO)(CO)CO)C4)c(F)c3)CC2)nc1 (stereo not drawn) [Example 190, 2-[2,6-difluoro-4-[3-[1-[5-(methoxymethyl)pyrimidin-2-yl]-4-piperidyl]propoxy]phenyl]-1-[3-hydroxy-3-[[[3-hydroxy-2,2-bis(hydroxymethyl)propyl]amino]methyl]pyrrolidin-1-yl]ethanone] | 100 to 130 | ≤ 100 | – | – | – |
| CC(C)c1noc(N2CCC(COc3ccc(-c4ccc(S(C)(=O)=O)cc4)nc3)CC2)n1 [GSK1292263, 3-isopropyl-5-(4-(((6-(4-(methylsulfonyl)phenyl)pyridin-3-yl)oxy)methyl)piperidin-1-yl)-l,2,4-oxadiazole, reference compound] | – | – | – | – | concentration at 2 h [3]: 7840 nM |

From US20230061736A1, “GPR119 AGONISTS” (Kallyope, Inc., priority 2019, published 2023)
